From the kinase profiling compilation of Christmann-Franck et al. (2016)

Tests used:
Test in all cases: radiometric filter-binding kinase assay, Kinase HotSpot
Details in all cases: compound 0.5 µM; ATP 10 µM
RPS6KA3 KD1 KD2 (human) = RPS6KA3 KD1 KD2 (human) (UniProt P51812)
ULK3 (human) = ULK3 (human) (UniProt Q6PHR2)
FLT3 (human) = FLT3 (human) (UniProt P36888)
ADRBK2 (human) = ADRBK2 (human) (UniProt P35626)
[1] = test system: FLT4 (human), P35916 [Q890H]
DSTYK (human) = DSTYK (human) (UniProt Q6XUX3)
ALK (human) = ALK (human) (UniProt Q9UM73)
MARK1 (human) = MARK1 (human) (UniProt Q9P0L2)
STK38 (human) = STK38 (human) (UniProt Q15208)
AKT2 (human) = AKT2 (human) (UniProt P31751)
IRAK1 (human) = IRAK1 (human) (UniProt P51617)
TNK2 (human) = TNK2 (human) (UniProt Q07912)
SRPK2 (human) = SRPK2 (human) (UniProt P78362)
MATK (human) = MATK (human) (UniProt P42679)
PBK (human) = PBK (human) (UniProt Q96KB5)
SIK2 (human) = SIK2 (human) (UniProt Q9H0K1)
GSG2 (human) = GSG2 (human) (UniProt Q8TF76)
MYO3B (human) = MYO3B (human) (UniProt Q8WXR4)
DCLK2 (human) = DCLK2 (human) (UniProt Q8N568)
OXSR1 (human) = OXSR1 (human) (UniProt O95747)
WEE1 (human) = WEE1 (human) (UniProt P30291)
PDGFRA (human) = PDGFRA (human) (UniProt P16234)
STK4 (human) = STK4 (human) (UniProt Q13043)
DYRK3 (human) = DYRK3 (human) (UniProt O43781)
CDK7 CCNH MNAT1 (human) = CDK7 CCNH MNAT1 (human) (UniProt P50613+P51948+P51946)
NUAK2 (human) = NUAK2 (human) (UniProt Q9H093)
TLK2 (human) = TLK2 (human) (UniProt Q86UE8)
DAPK1 (human) = DAPK1 (human) (UniProt P53355)
MAPK1 (human) = MAPK1 (human) (UniProt P28482)
EPHA6 (human) = EPHA6 (human) (UniProt Q9UF33)
CHEK1 (human) = CHEK1 (human) (UniProt O14757)
WNK2 (human) = WNK2 (human) (UniProt Q9Y3S1)
CDK4 CCND1 (human) = CDK4 CCND1 (human) (UniProt P24385+P11802)
CDK4 CCND3 (human) = CDK4 CCND3 (human) (UniProt P30281+P11802)
NEK3 (human) = NEK3 (human) (UniProt P51956)
ROCK1 (human) = ROCK1 (human) (UniProt Q13464)
PHKG2 (human) = PHKG2 (human) (UniProt P15735)
TTK (human) = TTK (human) (UniProt P33981)
CAMK2D (human) = CAMK2D (human) (UniProt Q13557)
BRSK2 (human) = BRSK2 (human) (UniProt Q8IWQ3)
NLK (human) = NLK (human) (UniProt Q9UBE8)
[2] = test system: MKNK1 (human), Q9BUB5 [T385D; 165-205 del]
MKNK1 (human), Q9BUB5 [T385D; 165-205 del], sequence (Q9BUB5 whole entry, looked up, stated change not applied): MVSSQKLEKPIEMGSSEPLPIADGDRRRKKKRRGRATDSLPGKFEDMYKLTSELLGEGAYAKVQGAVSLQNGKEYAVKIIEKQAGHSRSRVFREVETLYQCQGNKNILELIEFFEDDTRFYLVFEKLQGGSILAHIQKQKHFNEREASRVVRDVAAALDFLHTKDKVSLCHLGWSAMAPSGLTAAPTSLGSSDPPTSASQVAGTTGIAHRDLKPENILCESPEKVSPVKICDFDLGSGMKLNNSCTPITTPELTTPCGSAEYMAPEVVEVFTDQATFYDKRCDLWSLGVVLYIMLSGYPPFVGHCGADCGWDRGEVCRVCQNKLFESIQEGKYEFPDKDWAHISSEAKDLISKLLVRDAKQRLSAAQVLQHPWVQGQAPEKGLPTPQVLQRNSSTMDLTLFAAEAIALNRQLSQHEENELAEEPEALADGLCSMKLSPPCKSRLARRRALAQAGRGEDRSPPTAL

ULK3 (human), sequence (Q6PHR2 whole entry, looked up): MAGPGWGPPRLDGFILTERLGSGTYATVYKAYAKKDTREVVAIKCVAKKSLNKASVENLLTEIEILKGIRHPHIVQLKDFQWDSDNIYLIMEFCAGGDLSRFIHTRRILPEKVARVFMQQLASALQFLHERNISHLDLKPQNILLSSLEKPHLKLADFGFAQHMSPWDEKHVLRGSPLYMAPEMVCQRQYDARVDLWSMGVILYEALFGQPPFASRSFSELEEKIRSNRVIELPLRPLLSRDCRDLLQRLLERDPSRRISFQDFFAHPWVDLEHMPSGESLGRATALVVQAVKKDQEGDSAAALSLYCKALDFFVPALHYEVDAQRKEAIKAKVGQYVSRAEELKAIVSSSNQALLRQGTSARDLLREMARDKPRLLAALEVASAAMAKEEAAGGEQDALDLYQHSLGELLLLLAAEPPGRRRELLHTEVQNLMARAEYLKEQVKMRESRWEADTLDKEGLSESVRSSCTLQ
ROCK1 (human), sequence (Q13464 whole entry, looked up): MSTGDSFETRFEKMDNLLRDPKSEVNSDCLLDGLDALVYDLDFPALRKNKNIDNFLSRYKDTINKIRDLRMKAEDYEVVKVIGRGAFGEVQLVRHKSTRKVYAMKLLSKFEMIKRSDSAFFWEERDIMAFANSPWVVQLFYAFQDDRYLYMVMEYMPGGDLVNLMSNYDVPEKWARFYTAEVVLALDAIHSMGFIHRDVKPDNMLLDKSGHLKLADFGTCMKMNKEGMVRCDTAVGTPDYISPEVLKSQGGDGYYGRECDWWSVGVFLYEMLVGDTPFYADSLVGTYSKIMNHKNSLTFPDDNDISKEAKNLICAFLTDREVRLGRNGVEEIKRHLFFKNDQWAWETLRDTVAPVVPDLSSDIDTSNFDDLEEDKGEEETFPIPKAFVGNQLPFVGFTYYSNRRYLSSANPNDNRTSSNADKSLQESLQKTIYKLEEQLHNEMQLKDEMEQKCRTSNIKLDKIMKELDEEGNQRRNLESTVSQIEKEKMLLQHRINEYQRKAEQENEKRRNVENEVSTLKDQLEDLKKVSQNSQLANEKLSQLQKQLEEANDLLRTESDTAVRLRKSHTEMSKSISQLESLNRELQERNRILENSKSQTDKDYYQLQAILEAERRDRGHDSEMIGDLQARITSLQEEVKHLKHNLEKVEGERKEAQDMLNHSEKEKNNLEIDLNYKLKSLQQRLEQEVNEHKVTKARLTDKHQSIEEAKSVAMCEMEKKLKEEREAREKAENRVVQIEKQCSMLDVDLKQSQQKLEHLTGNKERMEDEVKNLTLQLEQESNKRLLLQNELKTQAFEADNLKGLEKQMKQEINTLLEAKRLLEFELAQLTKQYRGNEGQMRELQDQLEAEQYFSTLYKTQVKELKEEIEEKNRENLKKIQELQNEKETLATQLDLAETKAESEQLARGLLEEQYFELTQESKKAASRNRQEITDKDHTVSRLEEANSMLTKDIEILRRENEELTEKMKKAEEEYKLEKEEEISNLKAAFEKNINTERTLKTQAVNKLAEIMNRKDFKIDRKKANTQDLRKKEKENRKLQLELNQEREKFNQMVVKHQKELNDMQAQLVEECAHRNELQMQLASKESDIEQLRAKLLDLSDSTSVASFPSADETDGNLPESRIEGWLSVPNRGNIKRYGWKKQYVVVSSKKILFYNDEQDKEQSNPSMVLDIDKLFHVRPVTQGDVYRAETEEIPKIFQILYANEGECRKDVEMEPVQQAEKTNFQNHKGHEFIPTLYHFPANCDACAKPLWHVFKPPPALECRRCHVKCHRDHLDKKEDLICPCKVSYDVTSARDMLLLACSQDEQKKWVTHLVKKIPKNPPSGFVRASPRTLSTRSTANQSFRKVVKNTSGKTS
WNK2 (human), sequence (Q9Y3S1 whole entry, looked up): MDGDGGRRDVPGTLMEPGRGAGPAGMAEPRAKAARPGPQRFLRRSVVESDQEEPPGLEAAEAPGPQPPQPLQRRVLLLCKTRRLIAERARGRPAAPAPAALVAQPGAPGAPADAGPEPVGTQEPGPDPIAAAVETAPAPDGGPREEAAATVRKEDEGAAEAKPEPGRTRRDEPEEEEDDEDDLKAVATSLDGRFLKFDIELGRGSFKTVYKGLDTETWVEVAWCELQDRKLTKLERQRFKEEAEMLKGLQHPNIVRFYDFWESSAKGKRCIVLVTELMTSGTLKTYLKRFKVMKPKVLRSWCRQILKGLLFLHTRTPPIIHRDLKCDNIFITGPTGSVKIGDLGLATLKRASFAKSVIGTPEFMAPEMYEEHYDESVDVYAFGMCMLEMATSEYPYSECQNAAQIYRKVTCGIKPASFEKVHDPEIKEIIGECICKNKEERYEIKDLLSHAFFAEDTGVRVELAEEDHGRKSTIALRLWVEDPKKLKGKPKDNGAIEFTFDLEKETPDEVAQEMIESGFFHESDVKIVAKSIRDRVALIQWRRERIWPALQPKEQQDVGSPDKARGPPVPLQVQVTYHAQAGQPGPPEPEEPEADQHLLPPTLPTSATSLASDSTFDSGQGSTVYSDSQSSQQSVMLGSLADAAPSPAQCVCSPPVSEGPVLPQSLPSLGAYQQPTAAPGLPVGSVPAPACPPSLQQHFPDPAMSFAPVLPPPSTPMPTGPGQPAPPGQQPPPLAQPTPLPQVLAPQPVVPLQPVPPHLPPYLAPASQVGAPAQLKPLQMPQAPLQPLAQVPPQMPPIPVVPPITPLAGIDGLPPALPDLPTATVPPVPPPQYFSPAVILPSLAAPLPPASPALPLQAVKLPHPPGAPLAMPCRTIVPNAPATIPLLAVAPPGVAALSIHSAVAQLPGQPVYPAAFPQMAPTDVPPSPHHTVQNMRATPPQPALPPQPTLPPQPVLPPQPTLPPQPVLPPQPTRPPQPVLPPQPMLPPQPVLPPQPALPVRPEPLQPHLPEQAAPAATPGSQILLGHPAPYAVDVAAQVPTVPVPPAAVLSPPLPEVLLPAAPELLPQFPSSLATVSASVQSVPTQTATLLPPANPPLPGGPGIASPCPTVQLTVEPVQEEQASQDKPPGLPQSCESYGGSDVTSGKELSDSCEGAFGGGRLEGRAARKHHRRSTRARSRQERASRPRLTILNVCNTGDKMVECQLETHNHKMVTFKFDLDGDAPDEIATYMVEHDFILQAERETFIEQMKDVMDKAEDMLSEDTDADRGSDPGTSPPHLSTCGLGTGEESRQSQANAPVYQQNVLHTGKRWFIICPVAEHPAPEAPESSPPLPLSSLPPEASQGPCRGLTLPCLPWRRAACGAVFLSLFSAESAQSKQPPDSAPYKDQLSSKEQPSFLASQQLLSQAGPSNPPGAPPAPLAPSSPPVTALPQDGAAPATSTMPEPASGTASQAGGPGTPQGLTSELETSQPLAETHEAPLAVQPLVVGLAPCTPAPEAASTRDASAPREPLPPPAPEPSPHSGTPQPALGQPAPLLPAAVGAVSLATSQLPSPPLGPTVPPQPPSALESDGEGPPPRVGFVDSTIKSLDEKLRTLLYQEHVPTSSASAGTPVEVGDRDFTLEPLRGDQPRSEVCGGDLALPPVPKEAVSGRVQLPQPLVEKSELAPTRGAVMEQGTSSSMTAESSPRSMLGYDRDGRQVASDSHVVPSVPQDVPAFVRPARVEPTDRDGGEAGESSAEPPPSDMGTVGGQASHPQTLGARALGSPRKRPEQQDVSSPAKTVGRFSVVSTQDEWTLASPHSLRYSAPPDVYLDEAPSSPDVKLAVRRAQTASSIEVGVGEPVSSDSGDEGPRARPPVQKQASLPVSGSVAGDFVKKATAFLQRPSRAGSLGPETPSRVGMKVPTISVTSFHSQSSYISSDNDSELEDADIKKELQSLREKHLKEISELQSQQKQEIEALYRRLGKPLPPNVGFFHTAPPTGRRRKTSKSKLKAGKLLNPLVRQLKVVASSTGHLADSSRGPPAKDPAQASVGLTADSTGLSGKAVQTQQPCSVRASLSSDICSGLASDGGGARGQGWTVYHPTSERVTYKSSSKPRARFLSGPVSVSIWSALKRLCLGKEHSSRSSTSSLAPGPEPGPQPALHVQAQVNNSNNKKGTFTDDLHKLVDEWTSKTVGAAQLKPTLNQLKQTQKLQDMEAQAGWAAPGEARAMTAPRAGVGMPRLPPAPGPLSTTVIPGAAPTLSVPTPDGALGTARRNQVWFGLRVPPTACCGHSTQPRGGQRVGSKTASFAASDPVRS
CAMK2D (human), sequence (Q13557 whole entry, looked up): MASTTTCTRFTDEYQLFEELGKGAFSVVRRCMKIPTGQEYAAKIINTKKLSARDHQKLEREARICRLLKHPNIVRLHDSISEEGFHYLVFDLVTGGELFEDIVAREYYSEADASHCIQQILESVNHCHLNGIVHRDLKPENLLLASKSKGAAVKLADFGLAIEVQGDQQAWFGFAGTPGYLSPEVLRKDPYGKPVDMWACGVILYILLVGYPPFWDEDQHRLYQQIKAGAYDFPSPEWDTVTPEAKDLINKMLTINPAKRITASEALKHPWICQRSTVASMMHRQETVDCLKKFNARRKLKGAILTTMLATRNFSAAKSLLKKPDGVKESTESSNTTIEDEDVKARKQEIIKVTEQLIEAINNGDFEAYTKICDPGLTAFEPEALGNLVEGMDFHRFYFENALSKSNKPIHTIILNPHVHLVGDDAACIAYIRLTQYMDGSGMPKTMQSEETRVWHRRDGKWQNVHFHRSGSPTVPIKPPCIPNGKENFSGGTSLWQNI

C[C@@H]1CCN(C(=O)CC#N)C[C@@H]1N(C)c1ncnc2[nH]ccc12
residual activity (RPS6KA3 KD1 KD2 (human)): 97%
residual activity (ULK3 (human)): 101%
residual activity (FLT3 (human)): 77.9%
residual activity (ADRBK2 (human)): 99.2%
residual activity [1]: 97.5%
residual activity (DSTYK (human)): 98.4%
residual activity (ALK (human)): 107%
residual activity (MARK1 (human)): 119%
residual activity (STK38 (human)): 95.7%
residual activity (AKT2 (human)): 98%
residual activity (IRAK1 (human)): 93.9%
residual activity (TNK2 (human)): 87.1%
residual activity (SRPK2 (human)): 90.7%
residual activity (MATK (human)): 66.9%
residual activity (PBK (human)): 102%
residual activity (SIK2 (human)): 89.2%
residual activity (GSG2 (human)): 77.9%
residual activity (MYO3B (human)): 89.3%
residual activity (DCLK2 (human)): 96.6%
residual activity (OXSR1 (human)): 98.2%
residual activity (WEE1 (human)): 97.7%
residual activity (PDGFRA (human)): 104%
residual activity (STK4 (human)): 95.5%
residual activity (DYRK3 (human)): 106%
residual activity (CDK7 CCNH MNAT1 (human)): 119%
residual activity (NUAK2 (human)): 80.3%
residual activity (TLK2 (human)): 94.4%
residual activity (DAPK1 (human)): 109%
residual activity (MAPK1 (human)): 88.6%
residual activity (EPHA6 (human)): 99%
residual activity (CHEK1 (human)): 94.1%
residual activity (WNK2 (human)): 101%
residual activity (CDK4 CCND1 (human)): 94.1%
residual activity (CDK4 CCND3 (human)): 99.9%
residual activity (NEK3 (human)): 94.5%
residual activity (ROCK1 (human)): 90.1%
residual activity (PHKG2 (human)): 98.6%
residual activity (TTK (human)): 108%
residual activity (CAMK2D (human)): 98.2%
residual activity (BRSK2 (human)): 86.9%
residual activity (NLK (human)): 110%
residual activity [2]: 89.9%

COc1ccc(S(=O)(=O)N(CCO)c2ccccc2CN(C)C/C=C/c2ccc(Cl)cc2)cc1
residual activity (RPS6KA3 KD1 KD2 (human)): 98%
residual activity (ULK3 (human)): 106%
residual activity (FLT3 (human)): 98.4%
residual activity (ADRBK2 (human)): 105%
residual activity [1]: 91%
residual activity (DSTYK (human)): 93.5%
residual activity (ALK (human)): 98.1%
residual activity (MARK1 (human)): 98.4%
residual activity (STK38 (human)): 98.3%
residual activity (AKT2 (human)): 106%
residual activity (IRAK1 (human)): 98%
residual activity (TNK2 (human)): 94.1%
residual activity (SRPK2 (human)): 98.5%
residual activity (MATK (human)): 101%
residual activity (PBK (human)): 95.3%
residual activity (SIK2 (human)): 97.4%
residual activity (GSG2 (human)): 95.3%
residual activity (MYO3B (human)): 90.2%
residual activity (DCLK2 (human)): 99.1%
residual activity (OXSR1 (human)): 106%
residual activity (WEE1 (human)): 96%
residual activity (PDGFRA (human)): 102%
residual activity (STK4 (human)): 94.2%
residual activity (DYRK3 (human)): 113%
residual activity (CDK7 CCNH MNAT1 (human)): 97.6%
residual activity (NUAK2 (human)): 113%
residual activity (TLK2 (human)): 96.6%
residual activity (DAPK1 (human)): 120%
residual activity (MAPK1 (human)): 97%
residual activity (EPHA6 (human)): 95.3%
residual activity (CHEK1 (human)): 93.5%
residual activity (WNK2 (human)): 97.1%
residual activity (CDK4 CCND1 (human)): 94.6%
residual activity (CDK4 CCND3 (human)): 94.1%
residual activity (NEK3 (human)): 96.2%
residual activity (ROCK1 (human)): 99.7%
residual activity (PHKG2 (human)): 103%
residual activity (TTK (human)): 83.3%
residual activity (CAMK2D (human)): 91.8%
residual activity (BRSK2 (human)): 103%
residual activity (NLK (human)): 101%
residual activity [2]: 103%
